Test results as given in PubChem BioAssay (NCI).
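Cultured in 96-well plates, cells were exposed to test compound for 48 hours across five concentrations. Abbreviation: GI50, concentration required for 50% inhibition of growth. TGI denotes the concentration required for complete inhibition of growth.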

Key:
Assay in all cases: inhibition of tumour cell growth, NCI panel, 48 h
A498 renal = system: A498 renal
DLD-1 colon = system: DLD-1 colon
EKVX NSCLC = system: EKVX NSCLC
HCC-2998 colon = system: HCC-2998 colon
HCT-116 colon = system: HCT-116 colon
HOP-18 NSCLC = system: HOP-18 NSCLC
HOP-92 NSCLC = system: HOP-92 NSCLC
HT29 colon = system: HT29 colon
KM20L2 colon = system: KM20L2 colon
NCI-H460 lung = system: NCI-H460 lung
OVCAR-4 ovarian = system: OVCAR-4 ovarian
SK-MEL-2 melanoma = system: SK-MEL-2 melanoma
SK-MEL-28 melanoma = system: SK-MEL-28 melanoma
SNB-78 CNS = system: SNB-78 CNS
UACC-257 melanoma = system: UACC-257 melanoma
UACC-62 melanoma = system: UACC-62 melanoma
XF 498 CNS = system: XF 498 CNS
ACHN renal = system: ACHN renal

O=C(O)/C=C/c1cnc[nH]1
TGI (A498 renal): > 500 µM | TGI (DLD-1 colon): > 500 µM | TGI (EKVX NSCLC): > 500 µM | TGI (HCC-2998 colon): > 500 µM | TGI (HCT-116 colon): > 500 µM | TGI (HOP-18 NSCLC): > 500 µM | TGI (HOP-92 NSCLC): > 500 µM | TGI (HT29 colon): > 500 µM | GI50 (KM20L2 colon): > 500 µM | TGI (KM20L2 colon): > 500 µM | TGI (NCI-H460 lung): > 500 µM | TGI (OVCAR-4 ovarian): > 500 µM | TGI (SK-MEL-2 melanoma): > 500 µM | TGI (SK-MEL-28 melanoma): > 500 µM | GI50 (SNB-78 CNS): > 500 µM | TGI (SNB-78 CNS): > 500 µM | TGI (UACC-257 melanoma): > 500 µM | TGI (UACC-62 melanoma): > 500 µM | TGI (XF 498 CNS): > 500 µM

COc1cccc(C2C(C(=O)O)=C(CO)Oc3cc4c(cc32)OCO4)c1 (configuration not stated)
TGI (A498 renal): > 100 µM | TGI (ACHN renal): > 100 µM | TGI (DLD-1 colon): > 100 µM | TGI (EKVX NSCLC): > 100 µM | TGI (HOP-18 NSCLC): > 100 µM | TGI (HOP-92 NSCLC): > 100 µM | TGI (HT29 colon): > 100 µM | TGI (KM20L2 colon): > 100 µM | TGI (NCI-H460 lung): > 100 µM | TGI (SK-MEL-2 melanoma): > 100 µM | TGI (SK-MEL-28 melanoma): > 100 µM | TGI (SNB-78 CNS): > 100 µM | TGI (UACC-62 melanoma): > 100 µM | TGI (XF 498 CNS): 91.2 µM

COc1ccc2c(c1)O[C@H]1c3ccc(O)cc3OC[C@@H]21
TGI (ACHN renal): 81.4 µM | TGI (DLD-1 colon): > 100 µM | TGI (EKVX NSCLC): > 100 µM | TGI (HCC-2998 colon): 53 µM | TGI (HCT-116 colon): > 100 µM | TGI (HOP-18 NSCLC): > 100 µM | TGI (HT29 colon): > 100 µM | TGI (KM20L2 colon): > 100 µM | TGI (NCI-H460 lung): > 100 µM | TGI (OVCAR-4 ovarian): > 100 µM | TGI (SK-MEL-2 melanoma): 72.7 µM | TGI (SNB-78 CNS): > 100 µM | TGI (UACC-257 melanoma): 52.5 µM | TGI (UACC-62 melanoma): 29.3 µM | TGI (XF 498 CNS): 46.4 µM

CCOc1ccc(N=Nc2ccc3oc(=O)c(/C(C)=N\NC(=O)CC(=O)Nc4ccc(Cl)cc4)cc3c2)cc1
TGI (ACHN renal): 97.6 µM | TGI (DLD-1 colon): 32 µM | TGI (EKVX NSCLC): 34.7 µM | TGI (HCC-2998 colon): 35.2 µM | TGI (HCT-116 colon): 31.5 µM | TGI (HOP-92 NSCLC): 54.9 µM | TGI (KM20L2 colon): > 100 µM | TGI (OVCAR-4 ovarian): 37.9 µM | TGI (SK-MEL-2 melanoma): 9.32 µM | TGI (SK-MEL-28 melanoma): > 100 µM | TGI (SNB-78 CNS): > 100 µM | TGI (UACC-62 melanoma): 28.9 µM | TGI (XF 498 CNS): 4.31 µM

COC(=O)C1=COC2OC3/C(=C\c4ccc(O)c(OC)c4)C(=O)OC34C=CC1C24 (configuration not stated)
TGI (A498 renal): 45.4 µM | TGI (ACHN renal): 28.3 µM | TGI (DLD-1 colon): 32.5 µM | TGI (HCC-2998 colon): 22.9 µM | TGI (HCT-116 colon): 34.4 µM | TGI (HOP-92 NSCLC): 44.6 µM | TGI (HT29 colon): 33.5 µM | TGI (KM20L2 colon): 33.6 µM | TGI (NCI-H460 lung): 31.7 µM | TGI (OVCAR-4 ovarian): 34.4 µM | TGI (SK-MEL-2 melanoma): 23.7 µM | TGI (SK-MEL-28 melanoma): 33.7 µM | TGI (SNB-78 CNS): 39.4 µM | TGI (UACC-257 melanoma): 32.5 µM | TGI (UACC-62 melanoma): 36.4 µM | TGI (XF 498 CNS): 18.4 µM

CCOC(=O)C1(C(=O)OCC)CSC1
TGI (A498 renal): > 100 µM | TGI (ACHN renal): > 100 µM | TGI (HCC-2998 colon): 0.853 µM | TGI (HCT-116 colon): > 100 µM | TGI (HOP-92 NSCLC): > 100 µM | TGI (HT29 colon): > 100 µM | TGI (NCI-H460 lung): 1.74 µM | TGI (OVCAR-4 ovarian): > 100 µM | TGI (SK-MEL-28 melanoma): > 100 µM | TGI (UACC-257 melanoma): > 100 µM
